Experimental data as given in the supplement of paper PMC10733146.

Legend:
Assay in all cases: viability relative to DMSO control (fraction); higher = less drug effect (more viable cells)
Conditions in all cases: 48 h
Carfilzomib = compound: CC(C)C[C@H](NC(=O)[C@H](CCc1ccccc1)NC(=O)CN1CCOCC1)C(=O)N[C@@H](Cc1ccccc1)C(=O)N[C@@H](CC(C)C)C(=O)[C@@]1(C)CO1 [Carfilzomib]
Method in brief: (§1)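 Cells were incubated for 48 h at 37 °C and 5% CO2 in RPMI-1640 with penicillin/streptomycin, L-glutamine and human serum, at 4 × 10^4 cells per well in 384-well plates with compounds pre-plated at five concentrations, one well each. These were primary mononuclear tumour cells, fresh or cryopreserved, Ficoll-isolated from blood or bone marrow or obtained from processed lymph node. Viability values are CellTiter-Glo luminescence relative to the median of 16 inner DMSO wells.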

Panobinostat = compound: Cc1[nH]c2ccccc2c1CCNCc1ccc(/C=C/C(=O)NO)cc1 [Panobinostat]
Method in brief: as §1

Vemurafenib = compound: CCCS(=O)(=O)Nc1ccc(F)c(C(=O)c2c[nH]c3ncc(-c4ccc(Cl)cc4)cc23)c1F [Vemurafenib]
Method in brief: as §1

[1] = compound: CC(C)(C)OC(=O)Nc1ccc(-c2cc(C(=O)NCCCCCCC(=O)NO)no2)cc1
Method in brief: as §1

AZD7762 = compound: NC(=O)Nc1cc(-c2cccc(F)c2)sc1C(=O)N[C@H]1CCCNC1 [AZD7762]
Method in brief: as §1

Quizartinib = compound: CC(C)(C)c1cc(NC(=O)Nc2ccc(-c3cn4c(n3)sc3cc(OCCN5CCOCC5)ccc34)cc2)no1 [Quizartinib]
Method in brief: as §1

EPZ-5676 = compound: CC(C)N(C[C@H]1O[C@@H](n2cnc3c(N)ncnc32)[C@H](O)[C@@H]1O)[C@H]1C[C@@H](CCc2nc3cc(C(C)(C)C)ccc3[nH]2)C1 [EPZ-5676]
Method in brief: as §1

Tozasertib = compound: Cc1cc(Nc2cc(N3CCN(C)CC3)nc(Sc3ccc(NC(=O)C4CC4)cc3)n2)n[nH]1 [Tozasertib]
Method in brief: as §1

Cladribine = compound: Nc1nc(Cl)nc2c1ncn2[C@H]1C[C@H](O)[C@@H](CO)O1 [Cladribine]
Method in brief: as §1

[2] = compound: OCc1ccc(-c2ccc(-c3ccc(CO)s3)o2)s1
Method in brief: as §1

BI6727 = compound: CC[C@@H]1C(=O)N(C)c2cnc(Nc3ccc(C(=O)N[C@H]4CC[C@H](N5CCN(CC6CC6)CC5)CC4)cc3OC)nc2N1C(C)C [BI6727]
Method in brief: as §1

MLN-120B = compound: COc1c(Cl)cc2c([nH]c3cnccc32)c1NC(=O)c1cccnc1C [MLN-120B]
Method in brief: as §1

ONO-4059 = compound: CC#CC(=O)N1CC[C@@H](n2c(=O)n(-c3ccc(Oc4ccccc4)cc3)c3c(N)ncnc32)C1 [ONO-4059]
Method in brief: as §1

ERK5-IN-1 = compound: CCOc1cc(C(=O)N2CCC(N3CCN(C)CC3)CC2)ccc1Nc1ncc2c(n1)N(C1CCCC1)c1ccccc1C(=O)N2C [ERK5-IN-1]
Method in brief: as §1

Idarubicin = compound: CC(=O)[C@]1(O)Cc2c(O)c3c(c(O)c2[C@@H](O[C@H]2C[C@H](N)[C@H](O)[C@H](C)O2)C1)C(=O)c1ccccc1C3=O [Idarubicin]
Method in brief: as §1

For primary MCL patient cells (S068), the viability (Carfilzomib; 0.00016 µM) was 0.897, the viability (Carfilzomib; 0.0008 µM) was 0.257 and the viability (Carfilzomib; 0.004 µM) was 0.0483. For the same test system, the viability (Carfilzomib; 0.02 µM) was 0.0291, the viability (Carfilzomib; 0.1 µM) was 0.0301 and the viability (Panobinostat; 0.00064 µM) was 0.613. It also gave a viability (Panobinostat; 0.0032 µM) of 0.284, a viability (Panobinostat; 0.016 µM) of 0.13 and a viability (Panobinostat; 0.08 µM) of 0.105. It also gave a viability (Panobinostat; 0.4 µM) of 0.105, a viability (Vemurafenib; 0.024 µM) of 1.04 and a viability (Vemurafenib; 0.12 µM) of 0.988. For the same test system, the viability (Vemurafenib; 0.6 µM) was 1.05, the viability (Vemurafenib; 3 µM) was 1.15 and the viability (Vemurafenib; 15 µM) was 1.19. The viability ([1]; 0.024 µM) was 0.812, the viability ([1]; 0.12 µM) was 0.533 and the viability ([1]; 0.6 µM) was 0.216. It also gave a viability ([1]; 3 µM) of 0.115, a viability ([1]; 15 µM) of 0.0907 and a viability (AZD7762; 0.024 µM) of 0.688. It also gave a viability (AZD7762; 0.12 µM) of 0.491, a viability (AZD7762; 0.6 µM) of 0.369 and a viability (AZD7762; 3 µM) of 0.248. The viability (AZD7762; 15 µM) was 0.374, the viability (Quizartinib; 0.016 µM) was 1.08 and the viability (Quizartinib; 0.08 µM) was 1.17. For the same test system, the viability (Quizartinib; 0.4 µM) was 1.23, the viability (Quizartinib; 2 µM) was 1.39 and the viability (Quizartinib; 10 µM) was 1.51. The viability (EPZ-5676; 0.0032 µM) was 0.98, the viability (EPZ-5676; 0.016 µM) was 1.16 and the viability (EPZ-5676; 0.08 µM) was 1.02. It also gave a viability (EPZ-5676; 0.4 µM) of 1.05, a viability (EPZ-5676; 2 µM) of 1.07 and a viability (Tozasertib; 0.024 µM) of 0.961. For the same test system, the viability (Tozasertib; 0.12 µM) was 0.895, the viability (Tozasertib; 0.6 µM) was 0.845 and the viability (Tozasertib; 3 µM) was 0.725. For the same test system, the viability (Tozasertib; 15 µM) was 0.684, the viability (Cladribine; 0.024 µM) was 0.741 and the viability (Cladribine; 0.12 µM) was 0.376. It also gave a viability (Cladribine; 0.6 µM) of 0.233, a viability (Cladribine; 3 µM) of 0.161 and a viability (Cladribine; 15 µM) of 0.175. For the same test system, the viability ([2]; 0.024 µM) was 0.705, the viability ([2]; 0.12 µM) was 0.693 and the viability ([2]; 0.6 µM) was 0.701. The viability ([2]; 3 µM) was 0.743, the viability ([2]; 15 µM) was 0.348 and the viability (BI6727; 0.024 µM) was 0.881. The viability (BI6727; 0.12 µM) was 0.771, the viability (BI6727; 0.6 µM) was 0.403 and the viability (BI6727; 3 µM) was 0.219. The viability (BI6727; 15 µM) was 0.13, the viability (MLN-120B; 0.024 µM) was 0.885 and the viability (MLN-120B; 0.12 µM) was 0.872. It also gave a viability (MLN-120B; 0.6 µM) of 0.853, a viability (MLN-120B; 3 µM) of 0.751 and a viability (MLN-120B; 15 µM) of 0.593. The viability (ONO-4059; 0.0016 µM) was 0.759, the viability (ONO-4059; 0.008 µM) was 0.715 and the viability (ONO-4059; 0.04 µM) was 0.692. The viability (ONO-4059; 0.2 µM) was 0.665, the viability (ONO-4059; 1 µM) was 0.717 and the viability (ERK5-IN-1; 0.024 µM) was 0.883. For the same test system, the viability (ERK5-IN-1; 0.12 µM) was 0.815, the viability (ERK5-IN-1; 0.6 µM) was 0.478 and the viability (ERK5-IN-1; 3 µM) was 0.269. The viability (ERK5-IN-1; 15 µM) was 0.181, the viability (Idarubicin; 0.024 µM) was 0.835 and the viability (Idarubicin; 0.12 µM) was 0.457. It also gave a viability (Idarubicin; 0.6 µM) of 0.154, a viability (Idarubicin; 3 µM) of 0.017 and a viability (Idarubicin; 15 µM) of 0.021.
With primary BL patient cells (S005) the viability (Carfilzomib; 0.00016 µM) was 1.54, the viability (Carfilzomib; 0.0008 µM) was 0.957 and the viability (Carfilzomib; 0.004 µM) was 1. It also gave a viability (Carfilzomib; 0.02 µM) of 0.357, a viability (Carfilzomib; 0.1 µM) of 0.284 and a viability (Panobinostat; 0.00064 µM) of 0.9. For the same test system, the viability (Panobinostat; 0.0032 µM) was 0.723, the viability (Panobinostat; 0.016 µM) was 0.562 and the viability (Panobinostat; 0.08 µM) was 0.55. It also gave a viability (Panobinostat; 0.4 µM) of 0.454, a viability (Vemurafenib; 0.024 µM) of 0.966 and a viability (Vemurafenib; 0.12 µM) of 0.993. It also gave a viability (Vemurafenib; 0.6 µM) of 0.989, a viability (Vemurafenib; 3 µM) of 1.07 and a viability (Vemurafenib; 15 µM) of 1.1. It also gave a viability ([1]; 0.024 µM) of 1.06, a viability ([1]; 0.12 µM) of 0.802 and a viability ([1]; 0.6 µM) of 0.738. The viability ([1]; 3 µM) was 0.591, the viability ([1]; 15 µM) was 0.382 and the viability (AZD7762; 0.024 µM) was 0.806. For the same test system, the viability (AZD7762; 0.12 µM) was 0.848, the viability (AZD7762; 0.6 µM) was 0.717 and the viability (AZD7762; 3 µM) was 0.773. The viability (AZD7762; 15 µM) was 0.622, the viability (Quizartinib; 0.016 µM) was 1.01 and the viability (Quizartinib; 0.08 µM) was 1.1. The viability (Quizartinib; 0.4 µM) was 1.07, the viability (Quizartinib; 2 µM) was 1.11 and the viability (Quizartinib; 10 µM) was 0.966. It also gave a viability (EPZ-5676; 0.0032 µM) of 1.54, a viability (EPZ-5676; 0.016 µM) of 1.13 and a viability (EPZ-5676; 0.08 µM) of 1.46. The viability (EPZ-5676; 0.4 µM) was 1.35, the viability (EPZ-5676; 2 µM) was 1 and the viability (Tozasertib; 0.024 µM) was 0.826. For the same test system, the viability (Tozasertib; 0.12 µM) was 1.33, the viability (Tozasertib; 0.6 µM) was 0.802 and the viability (Tozasertib; 3 µM) was 1.17. For the same test system, the viability (Tozasertib; 15 µM) was 0.568, the viability (Cladribine; 0.024 µM) was 0.965 and the viability (Cladribine; 0.12 µM) was 1.08. For the same test system, the viability (Cladribine; 0.6 µM) was 0.933, the viability (Cladribine; 3 µM) was 0.912 and the viability (Cladribine; 15 µM) was 0.83. The viability ([2]; 0.024 µM) was 0.798, the viability ([2]; 0.12 µM) was 0.926 and the viability ([2]; 0.6 µM) was 0.821. The viability ([2]; 3 µM) was 0.931, the viability ([2]; 15 µM) was 0.616 and the viability (BI6727; 0.024 µM) was 0.931. For the same test system, the viability (BI6727; 0.12 µM) was 0.881, the viability (BI6727; 0.6 µM) was 0.9 and the viability (BI6727; 3 µM) was 0.725. It also gave a viability (BI6727; 15 µM) of 0.483, a viability (MLN-120B; 0.024 µM) of 0.979 and a viability (MLN-120B; 0.12 µM) of 1.01. It also gave a viability (MLN-120B; 0.6 µM) of 0.981, a viability (MLN-120B; 3 µM) of 1.01 and a viability (MLN-120B; 15 µM) of 0.861. It also gave a viability (ONO-4059; 0.0016 µM) of 1.07, a viability (ONO-4059; 0.008 µM) of 1.12 and a viability (ONO-4059; 0.04 µM) of 1.06. It also gave a viability (ONO-4059; 0.2 µM) of 1.15, a viability (ONO-4059; 1 µM) of 1.07 and a viability (ERK5-IN-1; 0.024 µM) of 1.07. It also gave a viability (ERK5-IN-1; 0.12 µM) of 1.09, a viability (ERK5-IN-1; 0.6 µM) of 1 and a viability (ERK5-IN-1; 3 µM) of 0.89. The viability (ERK5-IN-1; 15 µM) was 0.631, the viability (Idarubicin; 0.024 µM) was 1.08 and the viability (Idarubicin; 0.12 µM) was 1.45. The viability (Idarubicin; 0.6 µM) was 1.16, the viability (Idarubicin; 3 µM) was 0.541 and the viability (Idarubicin; 15 µM) was 0.665.
